# Where “and” joins values, the source holds several entries; their conditions need not be identical. Identical values can stand only once. Like-named read-outs stand apart in the source and are kept apart here.
# Tests used:
# [1] = tested on: DPPIV-intact normal male Fisher rats
# Description: Each test compound was suspended in a solution of 0.5% methyl cellulose at the doses indicated in Table 3, and then administered orally at a volume of 5 mL/kg. The vehicle control group was orally administered a solution of 0.5% methyl cellulose at a volume of 5 mL/kg.
# An unanesthetized rat was lightly cut at the caudal vein with a razor blade and bled immediately before, and at 1, 3, and 5 hours after administration of a test compound or a solution of 0.5% methyl cellulose. 250 μL of blood was collected from the rat using a heparinized capillary and transferred into a centrifugation tube. The supernatant obtained by centrifugation (at 10000 g at 4° C. for 2 minutes) was assayed for GLP-1 level using Active GLP-1 ELISA kit (Linco).
# [2] = tested on: DPPIV-intact normal male Fisher rats; assay: Influences of metformin and DPPIV inhibitors (Examples 82, 119, 120, 122, 229, 267), singly or in combination, on GLP-1 level in normal rats; format: in vivo, rat
# Description: Animals: DPPIV-Intact Normal Male Fisher Rats (Purchased from CLEA Japan, Inc.)
# 250 μL of blood was collected from the rat using a heparinized capillary and transferred into a centrifugation tube.
# [3] = tested on: BALB/c AnCrj mice; conditions: 5-FU treatment 60 mg/kg for 3 days, mice
# Description: Animals: BALB/c AnCrj Mice (Purchased from Charles River Japan, Inc.)
# 5-FU (purchased from Sigma) was suspended in a solution of 0.5% methyl cellulose, and then administered orally at a volume of 10 mL/kg/day (8 a.m. to 9 a.m.) for 3 days (60 mg/kg). […] The vehicle control group was orally administered a solution of 0.5% methyl cellulose at a volume of 10 mL/kg.
# Mice were fasted for 18 hours following the afternoon administration on the third day of the administration series. On the following day, the mice were killed by cervical dislocation, and then the whole small intestine was excised and the wet weight was measured.
# [4] = tested on: Zucker fa/fa rats
# Description: (§1) Animals: Zucker fa/fa Rats, an Animal Model for TypeII Diabetes (Purchased from Charles River Japan, Inc.)
# (§2) Each test compound was dissolved in distilled water at the doses shown in the Tables indicated below, and then administered orally at a volume of 5 mL/kg. The vehicle control group was orally administered distilled water at a volume of 5 mL/kg. […] The rats were tested for glucose tolerance on the first day of the administration series. In the test, distilled water and the test compounds were given 0.5 hour before glucose load.
# Food intake and body weight were determined at 4:00 p.m after the 14-day administration series. Total food intake and weight gain over 14 days were determined for each experimental group.
# [5] = tested on: DPPIV-deficient male Fisher rats; assay: Influence of metformin on the level of GLP-2 in DPPIV-deficient rats; format: in vivo, rat; conditions: 300 mg/kg p.o.; for GLP-2 concentration at each time point (hr) after oral administration (ng/ml): listed as metformin
# Description: Animals: DPPIV-Deficient Male Fisher Rats (Purchased from Charles River Japan, Inc.)
# The test compound was suspended in a solution of 0.5% methyl cellulose at the dose indicated in Table 11, and then administered orally at a volume of 5 mL/kg. The vehicle control group was orally administered an aqueous solution of 0.5% methyl cellulose at a volume of 5 mL/kg.
# An unanesthetized rat was lightly cut at the caudal vein with a razor blade and bled immediately before, and at 1, 3, and 5 hours after administration of a test compound or a solution of 0.5% methyl cellulose. 250 μL of blood was collected from the rat using a heparinized capillary and transferred into a centrifugation tube. The supernatant obtained by centrifugation (at 10000 g at 4° C. for 2 minutes) was assayed for GLP-2 level using GLP-2 ELISA kit (Yanaihara Institute Inc.).
# [6] = tested on: Zucker fa/fa rats; conditions: for glucose tolerance: glucose tolerance test
# Description: as §1, §2
# For the glucose tolerance test, an unanesthetized rat was lightly cut at the caudal vein with a razor blade and bled immediately before the administration of a test compound or distilled water, and immediately before, and at 0.5, 1, 2, and 3 hours after glucose load. 250 μL of blood was collected from the rat using a heparinized capillary and transferred into a centrifugation tube. The supernatant obtained by centrifugation (at 10000 g at 4° C. for 2 minutes) was assayed for active GLP-1 level using Active GLP-1 ELISA kit (Linco). At the same time, 10 μL of blood was collected and mixed with 140 μL of a 0.6 M perchloric acid solution. The mixture was centrifuged (at 3000 g at 4° C. for 10 minutes), and the resulting supernatant was assayed for glucose using Glucose Test Wako II (Wako Pure Chemical Industries, Inc.). The level of blood glucose alone was determined at the time of measurement 3 hours after glucose load.
# [7] = tested on: DPPIV-deficient male Fisher rats
# Description: Animals: DPPIV-deficient male Fisher rats (purchased from Charles River Japan, Inc.)
# Each test compound was suspended in a solution of 0.5% methyl cellulose at the doses indicated in Table 2, and then administered orally at a volume of 5 mL/kg. The vehicle control group was orally administered a solution of 0.5% methyl cellulose at a volume of 5 mL/kg.
# An unanesthetized rat was lightly cut at the caudal vein with a razor blade and bled immediately before, and at 1, 3, and 5 hours after the administration of a test compound or a solution of 0.5% methyl cellulose. 250 μL of blood was collected from the rat using a heparinized capillary and transferred into a centrifugation tube. The supernatant obtained by centrifugation (at 10000 g at 4° C. for 2 minutes) was assayed for GLP-1 level using Active GLP-1 ELISA kit (Linco).
# [8] = 300 mg/kg p.o. twice daily for 14 days
# [9] = 300 mg/kg p.o. 0.5 hour before glucose load, 0 hr
# [10] = 300 mg/kg p.o. 0.5 hour before glucose load, 0.5 hr
# [11] = 300 mg/kg p.o. 0.5 hour before glucose load, 1 hr
# [12] = 300 mg/kg p.o. 0.5 hour before glucose load, 2 hr
# [13] = 300 mg/kg p.o. 0.5 hour before glucose load, −0.5 hr
# [14] = 30 mg/kg p.o. twice daily for 14 days
# [15] = 30 mg/kg p.o. 0.5 hour before glucose load, 0 hr
# [16] = 30 mg/kg p.o. 0.5 hour before glucose load, 0.5 hr
# [17] = 30 mg/kg p.o. 0.5 hour before glucose load, 1 hr
# [18] = 30 mg/kg p.o. 0.5 hour before glucose load, 2 hr
# [19] = 30 mg/kg p.o. 0.5 hour before glucose load, −0.5 hr
compound,measurement,setting,value
"CN(C)C(=N)N=C(N)N [Metformin, metformin]",GLP-1 concentration at each time point (hr) after oral administration (% of Pre),"[1]; 300 mg/kg p.o., 0 hr",100 ± 0.0 % of Pre
same,GLP-1 concentration at each time point (hr) after oral administration (% of Pre),"[1]; 300 mg/kg p.o., 1 hr",117 ± 9 % of Pre
same,GLP-1 concentration at each time point (hr) after oral administration (% of Pre),"[1]; 300 mg/kg p.o., 3 hr",149 ± 24 % of Pre
same,GLP-1 concentration at each time point (hr) after oral administration (% of Pre),"[1]; 300 mg/kg p.o., 5 hr",94 ± 10 % of Pre
same,level of active GLP-1,[1]; given singly,no increase
same,GLP-1 concentration 3 hours after oral administration (% of Pre),"[2]; 300 mg/kg p.o., 3 hours",118.1 ± 7.5 % of Pre and 108.6 ± 2.2 % of Pre and 112.5 ± 2.4 % of Pre
same,level of active GLP-1,[2]; 3 hours after administration,no increase
same,Wet weight of small intestine,[3]; 300 mg/kg p.o. twice a day,0.642 ± 0.017 g
same,Wet weight of small intestine (g),"[3]; 300 mg/kg p.o. twice a day, listed as metformin",no alteration
same,Total food intake for 14 days,[4]; [8],495.1 ± 8.9 g
same,Weight gain for 14 days,[4]; [8],64.5 ± 3.5 g
same,GLP-2 concentration at each time point (hr) after oral administration,[5]; 0 hr,1.32 ± 0.02 ng/mL
same,GLP-2 concentration at each time point (hr) after oral administration,[5]; 1 hr,1.65 ± 0.06 ng/mL
same,GLP-2 concentration at each time point (hr) after oral administration (ng/ml),[5]; 1 hr,significantly elevated
same,GLP-2 concentration at each time point (hr) after oral administration,[5]; 3 hr,2.08 ± 0.07 ng/mL
same,GLP-2 concentration at each time point (hr) after oral administration (ng/ml),[5]; 3 hr,significantly elevated
same,GLP-2 concentration at each time point (hr) after oral administration,[5]; 5 hr,2.15 ± 0.05 ng/mL
same,GLP-2 concentration at each time point (hr) after oral administration (ng/ml),[5]; 5 hr,significantly elevated
same,level of active GLP-1 during the glucose tolerance test,[6],no significant increase
same,level of insulin during the glucose tolerance test,[6],no significant increase
same,Blood glucose level at each time point (hr) after oral glucose administration,[6]; [9],117.4 ± 5.5 mg/dL
same,GLP-1 concentration at each time point (hr) after oral glucose administration (% of Pre),[6]; [9],105.6 ± 1.7 % of Pre
same,Insulin concentration at each time point (hr) after oral glucose administration,[6]; [9],14.0 ± 1.1 ng/mL
same,Blood glucose level at each time point (hr) after oral glucose administration,[6]; [10],160.6 ± 9.7 mg/dL
same,GLP-1 concentration at each time point (hr) after oral glucose administration (% of Pre),[6]; [10],135.4 ± 7.6 % of Pre
same,Insulin concentration at each time point (hr) after oral glucose administration,[6]; [10],22.9 ± 2.5 ng/mL
same,Blood glucose level at each time point (hr) after oral glucose administration,[6]; [11],177.5 ± 10.6 mg/dL
same,GLP-1 concentration at each time point (hr) after oral glucose administration (% of Pre),[6]; [11],126.0 ± 8.9 % of Pre
same,Insulin concentration at each time point (hr) after oral glucose administration,[6]; [11],21.2 ± 2.3 ng/mL
same,Blood glucose level at each time point (hr) after oral glucose administration,[6]; [12],159.8 ± 8.6 mg/dL
same,GLP-1 concentration at each time point (hr) after oral glucose administration (% of Pre),[6]; [12],118.4 ± 6.5 % of Pre
same,Insulin concentration at each time point (hr) after oral glucose administration,[6]; [12],16.9 ± 1.6 ng/mL
same,Blood glucose level at each time point (hr) after oral glucose administration,"[6]; 300 mg/kg p.o. 0.5 hour before glucose load, 3 hr",122.4 ± 3.7 mg/dL
same,Blood glucose level at each time point (hr) after oral glucose administration,[6]; [13],108.9 ± 5.6 mg/dL
same,GLP-1 concentration at each time point (hr) after oral glucose administration (% of Pre),[6]; [13],100.0 ± 0.0 % of Pre
same,Insulin concentration at each time point (hr) after oral glucose administration,[6]; [13],11.9 ± 1.1 ng/mL
same,glucose tolerance,[6],improved
same,GLP-1 concentration at each time point (hr) after oral administration (% of Pre),"[7]; 30 mg/kg p.o., 0 hr",100 ± 0.0 % of Pre
same,GLP-1 concentration at each time point (hr) after oral administration (% of Pre),"[7]; 30 mg/kg p.o., 1 hr",99.9 ± 3.7 % of Pre
same,GLP-1 concentration at each time point (hr) after oral administration (% of Pre),"[7]; 30 mg/kg p.o., 3 hr",106.6 ± 5.0 % of Pre
same,GLP-1 concentration at each time point (hr) after oral administration (% of Pre),"[7]; 30 mg/kg p.o., 5 hr",116.3 ± 2.7 % of Pre
same,GLP-1 concentration at each time point (hr) after oral administration (% of Pre),"[7]; 100 mg/kg p.o., 0 hr",100 ± 0.0 % of Pre
same,GLP-1 concentration at each time point (hr) after oral administration (% of Pre),"[7]; 100 mg/kg p.o., 1 hr",111.6 ± 7.9 % of Pre
same,GLP-1 concentration at each time point (hr) after oral administration (% of Pre),"[7]; 100 mg/kg p.o., 3 hr",116.3 ± 8.2 % of Pre
same,GLP-1 concentration at each time point (hr) after oral administration (% of Pre),"[7]; 100 mg/kg p.o., 5 hr",150.6 ± 7.2 % of Pre
same,GLP-1 concentration at each time point (hr) after oral administration (% of Pre),"[7]; 300 mg/kg p.o., 0 hr",100 ± 0.0 % of Pre
same,GLP-1 concentration at each time point (hr) after oral administration (% of Pre),"[7]; 300 mg/kg p.o., 1 hr",140.0 ± 11.5 % of Pre
same,GLP-1 concentration at each time point (hr) after oral administration (% of Pre),"[7]; 300 mg/kg p.o., 3 hr",199.3 ± 32.4 % of Pre
same,GLP-1 concentration at each time point (hr) after oral administration (% of Pre),"[7]; 300 mg/kg p.o., 5 hr",227.1 ± 35.5 % of Pre
same,GLP-1 concentration at each time point (hr) after oral administration (% of Pre),"[7]; 300 mg/kg p.o., 5 hr, listed as metformin",significantly elevated
"CC(C)[C@H](N)C(=O)N1CCCC1 [Val-Pyr, valine pyrrolidide]",GLP-1 concentration at each time point (hr) after oral administration (% of Pre),"[1]; 30 mg/kg p.o., 0 hr",100 ± 0.0 % of Pre
same,GLP-1 concentration at each time point (hr) after oral administration (% of Pre),"[1]; 30 mg/kg p.o., 1 hr",127 ± 6 % of Pre
same,GLP-1 concentration at each time point (hr) after oral administration (% of Pre),"[1]; 30 mg/kg p.o., 3 hr",136 ± 20 % of Pre
same,GLP-1 concentration at each time point (hr) after oral administration (% of Pre),"[1]; 30 mg/kg p.o., 5 hr",91 ± 2 % of Pre
same,Wet weight of small intestine,[3]; 30 mg/kg p.o. twice a day,0.637 ± 0.015 g
same,Wet weight of small intestine (g),"[3]; 30 mg/kg p.o. twice a day, listed as DPPIV inhibitor",no alteration
same,Total food intake for 14 days,[4]; [14],491.8 ± 11.1 g
same,Weight gain for 14 days,[4]; [14],60.9 ± 4.4 g
same,level of insulin during the glucose tolerance test,[6],increased significantly
same,Blood glucose level at each time point (hr) after oral glucose administration,[6]; [15],110.5 ± 3.3 mg/dL
same,GLP-1 concentration at each time point (hr) after oral glucose administration (% of Pre),[6]; [15],119.5 ± 3.6 % of Pre
same,Insulin concentration at each time point (hr) after oral glucose administration,[6]; [15],13.1 ± 1.2 ng/mL
same,Blood glucose level at each time point (hr) after oral glucose administration,[6]; [16],166.0 ± 9.9 mg/dL
same,GLP-1 concentration at each time point (hr) after oral glucose administration (% of Pre),[6]; [16],217.6 ± 24.6 % of Pre
same,Insulin concentration at each time point (hr) after oral glucose administration,[6]; [16],32.4 ± 3.2 ng/mL
same,Blood glucose level at each time point (hr) after oral glucose administration,[6]; [17],167.1 ± 7.0 mg/dL
same,GLP-1 concentration at each time point (hr) after oral glucose administration (% of Pre),[6]; [17],197.5 ± 20.4 % of Pre
same,Insulin concentration at each time point (hr) after oral glucose administration,[6]; [17],27.7 ± 5.0 ng/mL
same,Blood glucose level at each time point (hr) after oral glucose administration,[6]; [18],139.3 ± 3.3 mg/dL
same,GLP-1 concentration at each time point (hr) after oral glucose administration (% of Pre),[6]; [18],128.3 ± 5.4 % of Pre
same,Insulin concentration at each time point (hr) after oral glucose administration,[6]; [18],14.4 ± 2.6 ng/mL
same,Blood glucose level at each time point (hr) after oral glucose administration,"[6]; 30 mg/kg p.o. 0.5 hour before glucose load, 3 hr",115.1 ± 3.0 mg/dL
same,Blood glucose level at each time point (hr) after oral glucose administration,[6]; [19],102.6 ± 3.0 mg/dL
same,GLP-1 concentration at each time point (hr) after oral glucose administration (% of Pre),[6]; [19],100.0 ± 0.0 % of Pre
same,Insulin concentration at each time point (hr) after oral glucose administration,[6]; [19],8.8 ± 1.1 ng/mL
same,glucose tolerance,[6],improved

# From patent publication US20060094722A1 (Eisai Co., Ltd., priority 2002, published 2006)
